Laboratory results: patent publication US9315544B2, “Method of treating eosinophilia by administering an immunomodulating peptide” (National Tsing Hua University, priority 2012, dated 2016)

Tested on: CCL11
Assay: Cytokine mRNA expression analysis by quantitative real-time PCR (CCL11)
Assay type: cell-based
Conditions: Beas-2B cells
Procedure: FIG. 1A-1B illustrates immunomodulatory effect of CMP on transcription of cytokine. Beas-2B cells were starved with serum free medium for 24 h, followed by stimulation with refold 5 μM ECP or 5 μM CMP or co-treatment with 5 μM ECP and 5 μM CMP at 37° C. for (A) 6 h and (B) 12 h, respectively. The mRNA quantities of CCL11, CCL24 and CCL26 were determined by real-time PCR. Beas-2B cells without protein treatment were used as control. […] The data represented at least three independent experiments and the error bar was shown as standard deviation (SD).
For inflammatory cytokine expression analysis, Beas-2B cells were stimulated with three different conditions: 1) 5 μM ECP, 2) 5 μM CMP and 3) co-incubated with 5 μM ECP and 5 μM CMP at 37° C. for 6 and 12 h. After incubation, total RNAs were extracted with RNA TRIzol reagent (Invitrogen, Inc) and reverse transcribed with MoMLV-reverse transcriptase (Promega, Madison, Wis.). SYBR Green-based quantitative real-time PCR will be used to quantify the gene of interest, relative expression ratios of genes of interest were normalized to glyceraldehyde-3-phosphate dehydrogenase (GAPDH) transcripts. Changes in cytokine expression were measured by quantitative real-time PCR (qRT-PCR) employing the StepOne™ amplification and detection system (Life Technologies Corporation). Data were analyzed by application of the StepOne™ quantification program software (version 2.22, Life Technologies Corporation) and expressed as means±S.D. Significance analysis was carried out by a two-sample unequal variance t-test with two-tailed distribution (post test). Significance was set as P<0.05.
ECP, the best known marker protein of asthma, is involved in triggering cytokine expression in bronchial epithelial cells. Real-time PCR analysis was carried out to quantify expression levels of indicated cytokines upon treatment with recombinant ECP in the presence and absence of CMP Bronchial epithelial Beas-2B cells were separately cultured in serum-free medium in the presence of 5 μM ECP, 5 μM CMP and both 5 μM ECP and 5 μM CMP for 6 and 12 h to monitor cytokine and chemokine gene modulation using real-time quantitative PCR. Untreated Beas-2B cells incubated at the same condition for 6 h and 12 h were used as negative controls. Here variation of gene expression levels of chemokines including CCL11, CCL24 and CCL26 was analyzed.

NYRWRCKNQN (CMP)
effect on chemokine gene expression (CCL11, CCL24, CCL26) (5 μM CMP alone, 6 and 12 h): no effect | ECP-induced gene expression of CCL11 (co-treatment 5 μM ECP and 5 μM CMP, 6 h): significant reduction
